Assay results: patent US20070203239A1, “Compounds For The Treatment Of An Acute Injury To The Central Nervous System” (Neurotec Pharma, S.L., priority 2004, published 2007)

Assays:
[1] = tested on: AMPA induced rat hippocampal excitotoxic damage; assay: Hippocampal CA1 lesion area (cresyl violet) after stereotaxic intrahippocampal microinjection, AMPA excitotoxicity model; assay type: in vivo; conditions: for area of hippocampal CA1 pyramidal layer lesion: rat dorsal hippocampus, two injections 2 h apart (5.4 mM AMPA and/or 20 μM glibenclamide), 24 hours after lesion, mean ± SEM
Protocol: (§1) In this neurodegenerative model, rats were anaesthetized with equithesin (a mixture of chloral hydrate and sodium pentobarbitone; 0.3 ml/100 g body wt, i.p.), and placed on a Kopf stereotaxic frame with the incisor bar set at −3.3 mm. Intracerebral injections aimed at the dorsal hippocampus were performed at 3.3 mm caudal to bregma, 2.2 mm lateral, and 2.9 mm ventral from dura (cf. G. Paxinos et al., “The rat brain in stereotaxic coordinates”, Sydney: Academic Press 1986). A volume of 0.5 μl was injected over a period of 5 min.
(§2) Four different groups of rats received two injections in a 2-hour interval as follows: a) sham rats (n=4) received two injections of PBS; b) AMPA rats (n=4) received the first injection of 5.4 mM AMPA and the second of PBS; c) glibenclamide rats (n=4) received two injections of 20 μM glibenclamide; d) AMPA+glibenclamide rats (n=4) received 5.4 mM AMPA+20 μM glibenclamide in the first injection and 20 μM glibenclamide in the second injection. All rats were sacrified 24 hours after the lesion.
(§3) Rats were transcardially perfused with 300 ml of 0.1 M phosphate buffer (PB, pH 7.4) followed by 300 ml ice-cold fixative (flow rate 20 ml/min). The fixative consisted of 4% (w/v) paraformaldehyde in PB. Brains were removed, crioprotected with 15% (w/v) sucrose in PB and then, frozen with dry ice.
Cryostat sections (12 μm) were obtained at the level of dorsal hippocampus (−3.3 mm to bregma). Isolectine B4 (IB4) histochemistry was performed to identify the microglial reaction (cf. C. A. Colton et al., J. Histochem. Cytochem. 1992, vol. 40, pp. 505-12). The hippocampal morphology was studied in Cresyl violet stained sections. […] These parameters were analyzed using a computer-assisted image analysis system (OPTIMAS®, BioScan Inc., Washington, USA). IB4-stained reactive microcytes were counted at ×100 magnification using an ocular grid mounted on a transmission light microscope (Axiolab, Zeiss, Göttingen, Germany). […] Results are expressed as mean ± SEM.

[2] = tested on: hippocampal microglial reaction; assay: Microglial reaction (IB4 histochemistry) after stereotaxic intrahippocampal microinjection, AMPA excitotoxicity model; assay type: in vivo, rat; conditions: for density of reactive microcytes (IB4-stained) / hippocampal microgliosis area: rat dorsal hippocampus, 24 hours after lesion, mean ± SEM, n=4; for hippocampal microgliosis area: two 0.5 μl injections 2 h apart (5.4 mM AMPA and/or 20 μM glibenclamide)
Protocol: as §1, §2, §3
Cryostat sections (12 μm) were obtained at the level of dorsal hippocampus (−3.3 mm to bregma). Isolectine B4 (IB4) histochemistry was performed to identify the microglial reaction (cf. C. A. Colton et al., J. Histochem. Cytochem. 1992, vol. 40, pp. 505-12). The hippocampal morphology was studied in Cresyl violet stained sections. The area of lesion and the microgliosis evaluation were performed on cresyl violet and IB4-positive stained sections respectively. These parameters were analyzed using a computer-assisted image analysis system (OPTIMAS®, BioScan Inc., Washington, USA). IB4-stained reactive microcytes were counted at ×100 magnification using an ocular grid mounted on a transmission light microscope (Axiolab, Zeiss, Göttingen, Germany). One-way ANOVA was used to compare differences between groups, followed by the LSD post-hoc test. Results are expressed as mean ± SEM.

[3] = rat AMPA hippocampal excitotoxicity model, 20 μM glibenclamide

| Compound | area of hippocampal CA1 pyramidal layer lesion [1] | density of reactive microcytes (IB4-stained) [2] | hippocampal microgliosis area [2] | effect on hippocampal lesion (in words) [1, 3] | effect on microglial activation (in words) [2, 3] |
| --- | --- | --- | --- | --- | --- |
| Cc1onc(O)c1CC(N)C(=O)O (stereo not drawn) [AMPA, α-amino-3-hydroxy-5-methylisoxazole-4-propionic] | 0.130±0.015 mm^2 | 645±59 cells/mm^2 | 0.44±0.07 mm^2 |  |  |
| COc1ccc(Cl)cc1C(=O)NCCc1ccc(S(=O)(=O)NC(=O)NC2CCCCC2)cc1 [glibenclamide] | 0.012±0.0017 mm^2 | 614±91 cells/mm^2 | 0.16±0.03 mm^2 | avoids hippocampal excitotoxic damage | potentiates microglial activation |
